Structures are written as SMILES.

Data set [1] concerns Trypanosoma brucei brucei. The experiment in a line: Antitrypanosomal activity against Trypanosoma brucei brucei Lister 427 VSG 221 [TetR T7RNAP] transgenic bloodstream forms assessed as reduction in cell viability after 48 hrs by alamar blue assay. The class given is functional. The settings on record: Lister 427 VSG 221, 48 h. (Resazurin is reduced to fluorescent resorufin, in cell work by metabolically active cells.)

The target in data set [2] is T1, E. coli GroEL/ES (Escherichia coli, UniProt P0A6F5). The experiment in a line: Inhibition of Escherichia coli GroEL/GroES expressed in Escherichia coli DH5alpha/BL21 (DE3) assessed as inhibition of denatured MDH refolding preincubated for 10 mins followed by ATP addition measured after 20 to 40 mins by fluorescence based assay.
The target of data set [3] is T2, HSP60/HSP10 (Homo sapiens, UniProt P10809). The experiment in a line: Inhibition of human mitochondrial HSP60/HSP10 expressed in Escherichia coli DH5alpha/BL21 (DE3) assessed as inhibition of denatured MDH refolding preincubated for 10 mins followed by ATP addition measured after 40 to 60 mins by fluorescence based assay.
In data set [4] the target is T1, E. coli GroEL/ES. The experiment in a line: Inhibition of Escherichia coli GroEL/GroES-ATPase activity expressed in Escherichia coli DH5alpha/BL21 (DE3) assessed as inhibition of denatured MDH refolding preincubated for 10 mins followed by ATP addition measured after 20 to 40 mins by malachite green dye based fluorescence assay.
For data set [5], the target named is T2, HSP60/HSP10. The experiment in a line: Inhibition of human mitochondrial HSP60/HSP10-ATPase activity expressed in Escherichia coli DH5alpha/BL21 (DE3) assessed as inhibition of denatured MDH refolding preincubated for 10 mins followed by ATP addition measured after 40 to 60 mins by malachite green dye based fluorescence assay.
Data set [6] can be described thus: Cytotoxicity against human THLE3 cells assessed as reduction in cell viability after 48 hrs by alamar blue assay. Type of data set: toxicity, cell-based.
A short description of data set [7]: Cytotoxicity against HEK293 cells assessed as reduction in cell viability after 48 hrs by alamar blue assay. The class given is toxicity, cell-based. The settings on record: human.
Data set [8] is described as follows: Inhibition of pig heart native MDH reporter reaction after 20 to 40 mins by fluorescence based assay. On the set-up: species or system Sus scrofa.

T2 sequence (P10809 whole entry): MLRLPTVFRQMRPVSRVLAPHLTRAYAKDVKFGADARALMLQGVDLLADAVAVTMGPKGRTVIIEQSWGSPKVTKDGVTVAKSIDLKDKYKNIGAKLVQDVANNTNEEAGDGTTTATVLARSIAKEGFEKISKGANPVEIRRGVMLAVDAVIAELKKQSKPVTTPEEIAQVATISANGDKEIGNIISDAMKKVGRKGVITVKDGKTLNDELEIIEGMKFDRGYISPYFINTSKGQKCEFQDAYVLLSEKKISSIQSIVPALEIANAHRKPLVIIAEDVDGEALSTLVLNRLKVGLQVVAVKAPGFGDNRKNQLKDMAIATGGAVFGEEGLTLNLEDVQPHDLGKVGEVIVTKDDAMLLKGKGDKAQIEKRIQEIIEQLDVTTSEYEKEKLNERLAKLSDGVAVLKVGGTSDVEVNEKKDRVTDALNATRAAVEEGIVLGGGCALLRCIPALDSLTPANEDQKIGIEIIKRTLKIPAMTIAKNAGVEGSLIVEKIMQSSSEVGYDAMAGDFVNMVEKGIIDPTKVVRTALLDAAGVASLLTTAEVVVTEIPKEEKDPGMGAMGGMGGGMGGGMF
T2 sequence (P61604 whole entry, further chain): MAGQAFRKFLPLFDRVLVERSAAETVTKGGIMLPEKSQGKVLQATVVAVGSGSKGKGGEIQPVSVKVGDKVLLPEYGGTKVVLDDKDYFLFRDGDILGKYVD
T1 sequence (P0A6F5 whole entry, looked up): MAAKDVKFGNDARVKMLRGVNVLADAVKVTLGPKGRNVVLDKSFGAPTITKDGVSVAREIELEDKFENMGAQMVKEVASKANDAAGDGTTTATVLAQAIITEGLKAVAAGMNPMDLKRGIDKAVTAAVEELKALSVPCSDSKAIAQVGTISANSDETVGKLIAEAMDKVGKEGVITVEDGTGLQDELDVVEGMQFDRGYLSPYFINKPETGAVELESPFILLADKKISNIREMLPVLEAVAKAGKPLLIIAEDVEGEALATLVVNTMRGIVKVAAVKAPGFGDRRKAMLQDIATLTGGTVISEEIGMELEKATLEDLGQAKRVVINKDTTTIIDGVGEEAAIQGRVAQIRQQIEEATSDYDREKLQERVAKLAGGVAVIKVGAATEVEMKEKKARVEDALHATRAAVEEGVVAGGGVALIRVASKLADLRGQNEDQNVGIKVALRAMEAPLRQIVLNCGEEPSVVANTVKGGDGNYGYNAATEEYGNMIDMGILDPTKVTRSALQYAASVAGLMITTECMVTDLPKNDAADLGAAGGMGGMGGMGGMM

What is called EC50 is the concentration giving half of the maximal effect. One may read the IC50 as the concentration that inhibits the measured activity by half. On to `N#Cc1ccc(S(=O)(=O)Nc2ccc(-c3nc4cc(NS(=O)(=O)c5ccc(C#N)cc5)ccc4o3)cc2)cc1`, for which the EC50 in data set [1] turned out to be 16 µM. Also, the IC50 on E. coli GroEL/ES [2] is 37 µM; at HSP60/HSP10 [3], 64 µM; at E. coli GroEL/ES [4], > 250 µM; on HSP60/HSP10 [5], > 250 µM; in data set [8], > 63 µM. Also, the figures for the EC50 at 48 h in data set [6] and in data set [7] were 79 µM and 45 µM, respectively.

Turning to `O=C(O)c1cccc(S(=O)(=O)Nc2ccc(-c3nc4cc(NS(=O)(=O)c5cccc(C(=O)O)c5)ccc4o3)cc2)c1`, the EC50 in data set [1] was > 42 µM. Also, the 50% inhibitory concentration (IC50) at E. coli GroEL/ES [2] was 61 µM; at HSP60/HSP10 [3], 81 µM; at E. coli GroEL/ES [4], > 250 µM; at HSP60/HSP10 [5], > 250 µM; in data set [8], 41 µM. In addition, the EC50 at 48 h in data set [6] and in data set [7] was > 100 µM throughout.

`N#Cc1ccccc1S(=O)(=O)Nc1ccc(-c2nc3cc(NS(=O)(=O)c4ccccc4C#N)ccc3o2)cc1`: the EC50 in data set [1] was found to be 23 µM. Besides, the IC50 is 32 µM at E. coli GroEL/ES [2]; 86 µM on HSP60/HSP10 [3]; > 250 µM at E. coli GroEL/ES [4]; 193 µM at HSP60/HSP10 [5]; > 63 µM in data set [8]. In addition, the values for the EC50 at 48 h in data set [6] and in data set [7] were 93 µM and 74 µM, respectively.

As for `O=C(O)c1ccccc1S(=O)(=O)Nc1ccc(-c2nc3cc(NS(=O)(=O)c4ccccc4C(=O)O)ccc3o2)cc1`, the EC50 in data set [1] was > 42 µM. For the same compound, the IC50 on E. coli GroEL/ES [2] is > 100 µM; on HSP60/HSP10 [3], > 100 µM; at E. coli GroEL/ES [4], > 250 µM; at HSP60/HSP10 [5] it was > 250 µM; in data set [8], > 63 µM. Besides, the EC50 at 48 h in data set [6] and in data set [7] was > 100 µM throughout.

`COC(=O)c1cccc(S(=O)(=O)Nc2ccc(-c3nc4cc(NS(=O)(=O)c5cccc(C(=O)OC)c5)ccc4o3)cc2)c1`: in data set [1], the EC50 is > 42 µM. For the same compound, the IC50 is 11 µM on E. coli GroEL/ES [2]; 95 µM at HSP60/HSP10 [3]; > 250 µM on E. coli GroEL/ES [4]; > 250 µM on HSP60/HSP10 [5]; > 63 µM in data set [8]. The EC50 at 48 h is 49 µM in data set [6] and > 100 µM in data set [7].

Take `COC(=O)c1ccc(S(=O)(=O)Nc2ccc(-c3nc4cc(NS(=O)(=O)c5ccc(C(=O)OC)cc5)ccc4o3)cc2)cc1`: in data set [1], the EC50 turned out to be 23 µM. Besides, the IC50 at E. coli GroEL/ES [2] was 26 µM; at HSP60/HSP10 [3] it was 87 µM; at E. coli GroEL/ES [4], 91 µM; on HSP60/HSP10 [5], > 250 µM; in data set [8], > 63 µM. Besides, the EC50 at 48 h in data set [6] and in data set [7] was > 100 µM in each case.

In the case of `COC(=O)c1ccccc1S(=O)(=O)Nc1ccc(-c2nc3cc(NS(=O)(=O)c4ccccc4C(=O)OC)ccc3o2)cc1`, the concentration for a half-maximal effect (EC50) in data set [1] was found to be 28 µM. Moreover, the IC50 on E. coli GroEL/ES [2] was 36 µM; on HSP60/HSP10 [3], > 100 µM; at E. coli GroEL/ES [4], 53 µM; at HSP60/HSP10 [5], > 250 µM; in data set [8] it was > 63 µM. Moreover, the half-maximal effective concentration (EC50) at 48 h in data set [6] and in data set [7] was > 100 µM in each case.

For the compound `O=C(O)c1ccc(S(=O)(=O)Nc2ccc(-c3nc4cc(NS(=O)(=O)c5ccc(C(=O)O)cc5)ccc4o3)cc2)cc1`, the half-maximal effective concentration (EC50) in data set [1] is > 42 µM. For the same compound, the IC50 on E. coli GroEL/ES [2] is 83 µM; at HSP60/HSP10 [3], > 100 µM; at E. coli GroEL/ES [4], > 250 µM; on HSP60/HSP10 [5], > 250 µM; in data set [8], > 63 µM. The EC50 at 48 h in data set [6] and in data set [7] was > 100 µM in each case.

Regarding `NCCCC(N)(C(=O)O)C(F)F` (stereo unspecified) [EFLORNITHINE], the half-maximal effective concentration (EC50) in data set [1] was > 42 µM. Moreover, the IC50 on E. coli GroEL/ES [2] was > 100 µM; on HSP60/HSP10 [3], > 100 µM; at E. coli GroEL/ES [4], > 250 µM; on HSP60/HSP10 [5], > 250 µM; in data set [8], > 63 µM. In addition, the half-maximal effective concentration (EC50) at 48 h in data set [6] and in data set [7] was > 100 µM throughout.

Regarding `CC1CS(=O)(=O)CCN1/N=C/c1ccc([N+](=O)[O-])o1` (stereo unspecified) [NIFURTIMOX], the EC50 in data set [1] was 2.8 µM. In addition, the IC50 was > 100 µM on E. coli GroEL/ES [2]; > 100 µM at HSP60/HSP10 [3]; > 250 µM on E. coli GroEL/ES [4]; > 250 µM at HSP60/HSP10 [5]; > 63 µM in data set [8]. The half-maximal effective concentration (EC50) at 48 h in data set [6] and in data set [7] was > 100 µM each time.

For `N=C(N)c1ccc(OCCCCCOc2ccc(C(=N)N)cc2)cc1` [PENTAMIDINE], the EC50 in data set [1] is < 0.019 µM. Besides, the IC50 is > 100 µM on E. coli GroEL/ES [2]; > 100 µM at HSP60/HSP10 [3]; > 250 µM on E. coli GroEL/ES [4]; > 250 µM at HSP60/HSP10 [5]; > 63 µM in data set [8]. Further, the half-maximal effective concentration (EC50) at 48 h in data set [6] was 19 µM; in data set [7], > 100 µM.

As for `Cc1ccc(C(=O)Nc2ccc(S(=O)(=O)O)c3cc(S(=O)(=O)O)cc(S(=O)(=O)O)c23)cc1NC(=O)c1cccc(NC(=O)Nc2cccc(C(=O)Nc3cc(C(=O)Nc4ccc(S(=O)(=O)O)c5cc(S(=O)(=O)O)cc(S(=O)(=O)O)c45)ccc3C)c2)c1` [SURAMIN], the EC50 in data set [1] was 0.12 µM. In addition, the IC50 on E. coli GroEL/ES [2] was 7.9 µM; on HSP60/HSP10 [3], 11 µM; at E. coli GroEL/ES [4] it was > 250 µM; on HSP60/HSP10 [5], > 250 µM; in data set [8], > 63 µM. Moreover, the EC50 at 48 h in data set [6] and in data set [7] was > 100 µM throughout.

Values taken from ChEMBL document CHEMBL3856280, “Targeting the HSP60/10 chaperonin systems of Trypanosoma brucei as a strategy for treating African sleeping sickness” (Bioorg Med Chem Lett, 2016).
